Measurements taken from patent publication US6117869A, “Compounds for and methods of inhibiting matrix metalloproteinases” (Warner-Lambert Company, priority 1999, dated 2000).

What was measured:
MMP-1 = molecular target: T1, MMP-1 (Homo sapiens, UniProt P03956); test: Thiopeptolide assay, MMP-1; assay type: biochemical; conditions: full-length enzyme, 5 nM; pH 7.0; 100 μM thiopeptolide substrate
T1 construct: purchased Washington University School of Medicine, St. Louis, Mo
T1 sequence (P03956 100-469): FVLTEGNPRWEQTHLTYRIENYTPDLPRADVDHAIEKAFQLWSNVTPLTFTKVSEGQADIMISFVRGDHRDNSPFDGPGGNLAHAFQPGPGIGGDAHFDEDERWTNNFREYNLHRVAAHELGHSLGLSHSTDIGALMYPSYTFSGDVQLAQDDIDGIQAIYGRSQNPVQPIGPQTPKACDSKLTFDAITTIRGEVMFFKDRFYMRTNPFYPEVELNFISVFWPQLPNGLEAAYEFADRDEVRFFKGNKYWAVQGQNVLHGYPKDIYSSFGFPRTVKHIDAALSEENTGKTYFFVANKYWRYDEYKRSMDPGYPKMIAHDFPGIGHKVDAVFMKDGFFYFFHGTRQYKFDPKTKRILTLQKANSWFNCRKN
Protocol: (§1) IC50 values were determined using a thiopeptolide substrate, Ac-Pro-Leu-Gly-thioester-Leu-Leu-Gly-OEt (Ye Q. Z., Johnson L. L., Hupe D. J., and Baragi V., "Purification and Characterization of the Human Stromelysin Catalytic Domain Expressed in Escherichia coli," Biochemistry,1992;31:11231-11235). MMP-1, MMP-7, and MMP-13 activity was assayed in a method similar to MMP-2 and MMP-3 (SCD and GCD). MMP-1 can be obtained from Washington University School of Medicine, St. Louis, Mo. MMP-7 can be obtained in accordance with the known procedure set forth by Ye Q. Z., Johnson L. L., and Baragi V., "Gene Syntheses and Expression in E. coli for PUMP, a Human Matrix Metalloproteinase," Biochem. and Biophys. Res. Comm., 1992;186:143-149. MMP13 can be obtained in accordance with the known procedure set forth by Freije J. M. P. et al., "Molecular Cloning and Expression of Collegenase-3, a Novel Human Matrix Metalloproteinase Produced by Breast Carcinomas," J. Bio. Chem., 1994;269:16766-16773.
(§2) Hydrolysis of the thiopeptolide substrate Ac-Pro-Leu-Gly-thioester-Leu-Leu-Gly-OEt (Bachem) is used as the primary screen to determine IC50 values for MMP inhibitors. A 100 μL reaction contains 1 mM 5,5'-dithiobis(2-nitrobenzoic acid) (DTNB), 100 μM substrate, 0.1% BRIJ® 35, PROTEIN GRADE®, Detergent, 10% solution, Sigma, St. Louis, Mo. [polyoxyethyleneglycol dodecyl ether; polyoxyethylene (23) lauryl ether], enzyme, and inhibitor in the appropriate reaction buffer. Activated full-length enzymes are assayed at 5 nM, Stromelysin Catalytic Domain (SCD) at 10 nM, and Gelatinase A Catalytic Domain (GaCD) at 1 nM. Inhibitors are screened from 100 μM to 1 nM. Full-length enzymes (MMP-1 and MMP-7) are assayed in 50 mM HEPES, 10 mM CaCl2, pH 7.0; SCD in 50 mM MES, 10 mM CaCl2, pH 6.0; and GaCD in 50 mM MOPS, 10 mM CaCl2, 10 μM ZnCl2, pH 7.0. The change in absorbance at 405 nm is monitored on a ThermoMax microplate reader at room temperature continuously for 20 minutes.

MMP-2CD = test: Thiopeptolide assay, gelatinase A catalytic domain (GCD/GaCD); assay type: biochemical; conditions: 1 nM, pH 7.0, 100 μM thiopeptolide substrate
Protocol: as §1, §2

MMP-3CD = molecular target: T2, MMP-3CD (Homo sapiens, UniProt P08254); test: Thiopeptolide assay, stromelysin-1 catalytic domain (SCD); assay type: biochemical; conditions: 10 nM, pH 6.0, 100 μM thiopeptolide substrate
T2 construct: Stromelysin Catalytic Domain (SCD) at 10 nM; made in house; host or cells: Escherichia coli
T2 sequence (P08254 100-272 limits assumed): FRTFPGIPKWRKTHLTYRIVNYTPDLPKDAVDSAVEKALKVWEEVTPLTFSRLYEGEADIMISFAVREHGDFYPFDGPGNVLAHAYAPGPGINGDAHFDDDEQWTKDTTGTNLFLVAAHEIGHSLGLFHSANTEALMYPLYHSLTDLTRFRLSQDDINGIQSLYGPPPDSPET
Protocol: as §1, §2

MMP-7 = molecular target: T3, MMP-7 (Homo sapiens, UniProt P09237); test: Thiopeptolide assay, MMP-7; assay type: biochemical; conditions: full-length enzyme, 5 nM; pH 7.0; 100 μM thiopeptolide substrate
T3 construct: made in house; host or cells: E. coli
T3 sequence (P09237 95-267): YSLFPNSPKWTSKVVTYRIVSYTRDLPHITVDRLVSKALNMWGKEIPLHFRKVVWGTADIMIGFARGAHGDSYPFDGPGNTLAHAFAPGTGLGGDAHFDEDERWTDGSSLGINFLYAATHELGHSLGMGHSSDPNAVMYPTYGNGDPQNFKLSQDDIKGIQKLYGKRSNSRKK
Protocol: as §1, §2

MMP-9 = MMP-9 (Homo sapiens, UniProt P14780); test: Thiopeptolide assay, MMP-9; assay type: biochemical; conditions: thiopeptolide substrate
Sequence of MMP-9 (P14780 94-707): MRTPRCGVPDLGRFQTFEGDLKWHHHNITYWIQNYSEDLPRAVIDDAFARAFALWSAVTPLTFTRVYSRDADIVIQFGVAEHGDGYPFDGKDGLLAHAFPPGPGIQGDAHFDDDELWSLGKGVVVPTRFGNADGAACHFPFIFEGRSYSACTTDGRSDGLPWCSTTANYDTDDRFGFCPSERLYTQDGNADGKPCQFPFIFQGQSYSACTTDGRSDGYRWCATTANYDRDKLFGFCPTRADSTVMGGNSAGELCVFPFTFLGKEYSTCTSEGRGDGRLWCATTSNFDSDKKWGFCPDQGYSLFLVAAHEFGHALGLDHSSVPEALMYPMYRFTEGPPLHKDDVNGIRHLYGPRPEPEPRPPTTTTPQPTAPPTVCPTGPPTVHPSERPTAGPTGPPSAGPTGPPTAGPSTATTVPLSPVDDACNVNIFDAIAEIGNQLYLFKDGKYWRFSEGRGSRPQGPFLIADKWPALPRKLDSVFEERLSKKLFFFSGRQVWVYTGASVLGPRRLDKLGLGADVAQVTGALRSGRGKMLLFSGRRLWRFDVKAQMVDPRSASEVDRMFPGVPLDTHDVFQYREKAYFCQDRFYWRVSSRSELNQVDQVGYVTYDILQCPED
Protocol: [The source words this procedure for another target and reports this target under the same test.] as §1, §2

MMP-13CD = test: Thiopeptolide assay, MMP-13CD; assay type: biochemical, Human; conditions: catalytic domain; thiopeptolide substrate
Protocol: as §1, §2

MMP-14CD = test: Thiopeptolide assay, MMP-14CD; assay type: biochemical; conditions: catalytic domain; thiopeptolide substrate
Protocol: as §1, §2

bovine nasal cartilage = conditions: cited from earlier work
pig articular cartilage = conditions: cited from earlier work
[1] = tested on: human ovarian carcinoma xenografts; conditions: mice bearing human ovarian carcinoma xenografts; cited from earlier work

IC50 (MMP-1) [µM]	IC50 (MMP-2CD) [µM]	IC50 (MMP-3CD) [µM]	IC50 (MMP-7) [µM]	IC50 (MMP-9) [µM]	IC50 (MMP-13CD) [µM]	IC50 (MMP-14CD) [µM]	Compound	formation of collagen and proteoglycan fragments (bovine nasal cartilage)	formation of collagen and proteoglycan fragments (pig articular cartilage)	survival [1]	tumor burden [1]
55	0.0235	0.0625	8.7	18	3.9	0.3	CC(C)C[C@H](NS(=O)(=O)c1ccc2c(c1)Sc1ccccc1O2)C(=O)O [Example 11, (S)-4-Methyl-2-(phenoxathiine-2-sulfonylamino)-pentanoic acid]	–	–	–	–
87	0.09	0.12	17	18	2.3	0.2	O=C(O)[C@H](Cc1ccc(O)cc1)NS(=O)(=O)c1ccc2c(c1)Sc1ccccc1O2 [Example 14, (S)-3-(4-Hydroxy-phenyl)-2-(phenoxathiine-2-sulfonylamino)-propionic acid]	–	–	–	–
> 100	0.17	0.35	91	> 100	8.7	0.5	O=C(O)[C@H](Cc1ccccc1)NS(=O)(=O)c1ccc2c(c1)Sc1ccccc1O2 [Example 12, (S)-2-(Phenoxathiine-2-sulfonylamino)-3-phenyl-propionic acid]	–	–	–	–
76	0.033	0.295	19	23	5.25	0.19	C[C@H](NS(=O)(=O)c1ccc2c(c1)Sc1ccccc1O2)C(=O)O [Example 9, (S)-2-(Phenoxathiine-2-sulfonylamino)-propionic acid]	–	–	–	–
> 100	0.91	0.86	54	> 100	16	3.8	O=C(O)[C@H](Cc1c[nH]c2ccccc12)NS(=O)(=O)c1ccc2c(c1)Sc1ccccc1O2 [Example 15, (S)-3-(1H-Indol-3-yl)-2-(phenoxathiine-2-sulfonylamino)-propionic acid]	–	–	–	–
> 100	0.113	0.41	14	53	4.4	1.55	NC(=O)C[C@H](NS(=O)(=O)c1ccc2c(c1)Sc1ccccc1O2)C(=O)O [Example 16, (S)-2-(Phenoxathiine-2-sulfonylamino)-succinamic acid]	–	–	–	–
72	0.0585	0.165	9.15	38	4.1	0.285	C[S+]([O-])CC[C@H](NS(=O)(=O)c1ccc2c(c1)Sc1ccccc1O2)C(=O)O (stereo partly drawn) [Example 10, (S)-4-Methanesulfinyl-2-(phenoxathiine-2-sulfonylamino)-butyric acid]	–	–	–	–
> 100	3.2	4.65	66	> 100	36	7.4	O=C(O)[C@H](CSC(c1ccccc1)(c1ccccc1)c1ccccc1)NS(=O)(=O)c1ccc2c(c1)Sc1ccccc1O2 [Example 13, (R)-2-(Phenoxathiine-2-sulfonylamino)-3-tritylsulfanyl-propionic acid]	–	–	–	–
6.25	0.027	0.0155	19	12	0.27	0.155	CC(C)[C@@H](NS(=O)(=O)c1ccc2c(c1)Sc1ccccc1O2)C(=O)O [Example 8, (R)-3-Methyl-2-(phenoxathiine-2-sulfonylamino)-butyric acid]	–	–	–	–
> 100	0.15	2	> 100	> 100	12	0.94	O=C(O)[C@@H](NS(=O)(=O)c1ccc2c(c1)Sc1ccccc1O2)c1ccccc1 [Example 17, (S)-(Phenoxathiine-2-sulfonylamino)-phenyl-acetic acid]	–	–	–	–
> 100	2.3	3.75	24	> 100	73	3.7	O=C(O)[C@H](CCc1ccccc1)NS(=O)(=O)c1ccc2c(c1)S(=O)(=O)c1ccccc1O2 [Example 7, (S)-2-(10,10-Dioxo-10H-10λ^6-phenoxathiine-2-sulfonylamino)-4-phenyl-butyric acid]	–	–	–	–

Continued, compound first:

Compound	IC50 (MMP-1) [µM]	IC50 (MMP-2CD) [µM]	IC50 (MMP-3CD) [µM]	IC50 (MMP-7) [µM]	IC50 (MMP-9) [µM]	IC50 (MMP-13CD) [µM]	IC50 (MMP-14CD) [µM]	formation of collagen and proteoglycan fragments (bovine nasal cartilage)	formation of collagen and proteoglycan fragments (pig articular cartilage)	survival [1]	tumor burden [1]
CC(C)[C@H](NS(=O)(=O)c1ccc2c(c1)Sc1ccccc1O2)C(=O)O [Example 4, (S)-3-Methyl-2-(phenoxathiine-2-sulfonylamino)-butyric acid]	39	–	0.053	6.7	19	–	–	–	–	–	–
CC(C)[C@H](NS(=O)(=O)c1ccc2c(c1)Sc1ccccc1S2)C(=O)O [Example 1, (S)-3-Methyl-2-((thianthren-2-ylsulfonyl)amino)butanoic acid]	> 100	15.4	6.9	27.6	> 100	> 100	40	–	–	–	–
O=C(O)[C@H](CCc1ccccc1)NS(=O)(=O)c1ccc2c(c1)Cc1ccccc1O2 [Example 3, (S)-4-Phenyl-2-(9H-xanthene-2-sulfonylamino)-butyric acid]	> 100	0.2	0.068	3.2	> 100	0.5	1	–	–	–	–
TIMP-1: tissue inhibitors of metalloproteinases	–	–	–	–	–	–	–	prevented the formation of collagen fragments, but not proteoglycan fragments	prevented the formation of collagen fragments, but not proteoglycan fragments	–	–
O=C(O)[C@H](CO)NS(=O)(=O)c1ccc2c(c1)Sc1ccccc1O2 [Example 5, (S)-3-Hydroxy-2-(phenoxathiine-2-sulfonylamino)-propionic acid]	> 100	0.069	0.18	23	82	1.8	0.39	–	–	–	–
CNC(=O)[C@H](Cc1ccccc1)NC(=O)[C@H](CC(C)C)[C@H](CSc1cccs1)C(=O)NO [BB-94]	–	–	–	–	–	–	–	–	–	prolonged the survival	decreased the tumor burden
O=C(O)[C@H](CCc1ccccc1)NS(=O)(=O)c1ccc2c(c1)Sc1ccccc1O2 [Example 2, (S)-2-(Phenoxathiine-2-sulfonylamino)-4-phenyl-butyric acid]	> 100	0.033	0.054	7.9	16.6	1.39	0.092	–	–	–	–
O=C(O)[C@H](CO)NS(=O)(=O)c1ccc2c(c1)Cc1ccccc1O2 [Example 6, (S)-3-Hydroxy-2-(9H-xanthene-2-sulfonylamino)-propionic acid]	> 100	0.65	0.44	34	> 100	4.3	4.1	–	–	–	–
